Like-named read-outs stand apart in the source and are kept apart here.
What was measured:
IGROV1 parental cells = experiment: Cytotoxicity, sulphorhodamine (SRB) assay, IGROV1 parental cells; format: cell-based, human; conditions: for ratio −/+ GF120918 (IGROV1): IC50 without / with 2 μM GF120918, IGROV1; for IC50: IGROV1 parental cells
Experimental: (§1) Cytotoxicity was Determined Using the Sulphorhodamine (SRB) Assay. Cells were plated in 96-wells plates, 1500 cells/well. Cells were cultured for 48 h at 37° C. and 5% CO2 in the absence of drugs. Then, in a serial dilution from approximately 1 μM to approximately 0.05 nM drugs were added, and cells were cultured for another 5 days at 37° C. and 5% CO2 Next cells are fixated in the plate, washed, and coloured with SRB. After 20 min unbound SRB is washed away using 0.1 M acetic acid. SRB that is bound to the cells is dissolved in 10 mM Tris-HCl buffer. Using a 96-well plate reader the absorbance at 540 nm is measured. For each drug the IC50 value was determined. Results are the mean of at least 3 experiments.

T8 resistant cells = experiment: Cytotoxicity, sulphorhodamine (SRB) assay, T8 resistant (BCRP overexpressing) cells; format: cell-based, human; conditions: for ratio −/+ GF120918 (T8): IC50 without / with 2 μM GF120918, T8; for IC50: T8 resistant cells
Experimental: as §1

[1] = Clinical trial: oral topotecan with or without GF120918, plasma levels; format: in vivo; conditions: three patients, topotecan 1.0 mg/m2 oral, with or without oral GF120918 (1000 mg)
Experimental: In this example the first results of a clinical trial are shown. Three patients received topotecan orally at a dosis of 1.0 mg.m^−2. Topotecan was administered with or without GF120918 (1000 mg). For illustrative purposes, the plasma concentration vs. time is shown for one patient in FIG. 2. In FIG. 3 the average including the standard deviation is shown for all three patients.

[2] = Effect of GF120918 on oral bioavailability of topotecan in mdr1a/1b (-/-) mice; format: in vivo; conditions: topotecan 1 mg/kg oral, GF120918 50 mg/kg oral 15 min prior, plasma
From the text: The tests with mice assessed the bioavailability of the drug in mdr1a/1b double knock out mice in the presence and the absence of a BCRP inhibitor. The bioavailability tests can also be carried out with either MRP and/or P-gp knock out mice thus enabling assessment of whether any effect found due to the presence of the bioinhibitor is due solely to BCRP, not due to P-gp and/or MRP. Thus it can be determined whether the particular drug transported is transported using one or more transport systems. The drug to be transported can be provided with a detectable marker to assess where it is located and to be able to quantitate it. Some drugs can be detected and quantitated in plasma without use of a detectable marker. The methodology employed is analogous to that disclosed in the Lancet article discussed above and is also described in Br. J. Cancer 1997, 76: 1181–1183. The methodology is thus considered to be incorporated by reference and is considered enabled to a person skilled in the art. […]
GF120918 was suspended in a hydroxypropylmethylcellulose (10 g/l): Tween 80 (2% v/v): H2O (0.5:1:98.5 v/v/v) formulation for oral administration, at 5 mg.ml^−1. […] Topotecan levels in plasma were determined by HPLC analysis as described by Rosing et al., 1995, J. Chromatography, 668: 107–115, and are depicted in FIG. 1.

[3] = + 2 μM GF120918, read-out: IGROV1 + GF120918 IC50
[4] = without GF120918, 5 days drug exposure, read-out: IGROV1 IC50
[5] = + 2 μM GF120918, read-out: T8 + GF120918 IC50
[6] = without GF120918, read-out: T8 IC50
[7] = Homo sapiens, IGROV-1, 120 h, without GF120918, 5 days drug exposure, read-out: IGROV1 IC50
[8] = Homo sapiens, without GF120918, read-out: T8 IC50

SMILES	ratio −/+ GF120918 (IGROV1) (IGROV1 parental cells)	IC50 (IGROV1 parental cells; [3])	IC50 (IGROV1 parental cells; [4])	Rf (resistance factor) T8 + GF120918 (T8 resistant cells; + 2 μM GF120918)	ratio −/+ GF120918 (T8) (T8 resistant cells)	IC50 (T8 resistant cells; [5])	IC50 (T8 resistant cells; [6])	Rf (resistance factor, IC50 T8 / IC50 IGROV1) (T8 resistant cells; without GF120918)	IC50 (IGROV1 parental cells; [7])	IC50 (T8 resistant cells; [8])	effect of GF120918 on the sensitivity of the parental cell line IGROV1 (IGROV1 parental cells; 2 μM GF120918, topoisomerase I drugs)	reversal of resistance of T8 for topoisomerase I drugs (T8 resistant cells; addition of 2 μM GF120918)	systemic exposure (AUC) to oral topotecan [1]	increase in the area under the curve (AUC) of oral topotecan [2]
CC[C@@]1(O)C(=O)OCc2c1cc1n(c2=O)Cc2c-1nc1cc(F)c(C)c3c1c2C(N)CC3.CS(=O)(=O)O (stereo partly shown) [DX8951f]	0.60	0.17 nM	0.1 nM	2.3	7.4	0.39 nM	2.88 nM	29						
CC[C@@]1(O)C(=O)OCc2c1cc1n(c2=O)Cc2c-1nc1ccccc1c2CC[Si](C)(C)C [BNP1350]	0.53	0.84 nM		4.1	1.4	3.45 nM		11	0.44 nM	4.94 nM				
CCc1c2c(nc3ccc(OC(=O)N4CCC(N5CCCCC5)CC4)cc13)-c1cc3c(c(=O)n1C2)COC(=O)[C@]3(O)CC [CPT11, irinotecan]	0.84	651 nM		4.7	11.2	3040 nM		62	544 nM	34000 nM				
COc1cc2c(cc1OC)CN(CCc1ccc(NC(=O)c3cccc4c(=O)c5cccc(OC)c5[nH]c34)cc1)CC2 [GF120918]											no or very little effect	for the greater part reversed		
CC[C@@]1(O)C(=O)OCc2c1cc1n(c2=O)Cc2cc3c(CN(C)C)c(O)ccc3nc2-1 [topotecan]	0.97	9.23 nM		4.3	24.4	40.2 nM		110	8.93 nM	979 nM			increased systemic exposure	approximately 6 fold
CC[C@@]1(O)C(=O)OCc2c1cc1n(c2=O)Cc2c-1nc1cc3c(cc1c2CN1CCN(C)CC1)OCCO3 [GG211]	0.74	0.87 nM	0.64 nM	5.3	4.9	4.57 nM	22.4 nM	35						
CCc1c2c(nc3ccc(O)cc13)-c1cc3c(c(=O)n1C2)COC(=O)[C@]3(O)CC [SN-38]	1.66	1.1 nM	1.82 nM	6.0	64.1	6.54 nM	419 nM	231						
